Assay results published in the NIST ThermoML archive (doi:10.1021/je700260f).

Settings: 293.14 K, Liquid, Vibrating tube method

FC(C(F)(F)F)C(F)(F)F [1,1,1,2,3,3,3-heptafluoropropane]
Settings	mass density [kg/m3]
5029 kPa	1439.2
7613 kPa	1453.4
7636 kPa	1453.6
7664 kPa	1453.8
7697 kPa	1454
7725 kPa	1454
7758 kPa	1454.2
7801 kPa	1454.4
7862 kPa	1454.8
7886 kPa	1454.8
7919 kPa	1455.1
7952 kPa	1455.3
7995 kPa	1455.4
8024 kPa	1455.6
8053 kPa	1455.7
8087 kPa	1455.9
8111 kPa	1456.1
8140 kPa	1456.2
8183 kPa	1456.4
8211 kPa	1456.6
8240 kPa	1456.7
8283 kPa	1456.9
8312 kPa	1457.1
8350 kPa	1457.4
8380 kPa	1457.4
8410 kPa	1457.7
8447 kPa	1457.8
8480 kPa	1457.9
8509 kPa	1458.1
8542 kPa	1458.3
9213 kPa	1461.8
9292 kPa	1462.1
9327 kPa	1462.4
9357 kPa	1462.4
9402 kPa	1462.7
9437 kPa	1462.7
9481 kPa	1463
9511 kPa	1463.2
9547 kPa	1463.4
9584 kPa	1463.5
9615 kPa	1463.7
9655 kPa	1464
9695 kPa	1464.1
9731 kPa	1464.2
9771 kPa	1464.6
9807 kPa	1464.6
9843 kPa	1464.8
9879 kPa	1464.9
9915 kPa	1465.1
9946 kPa	1465.3
10356 kPa	1467.4
10403 kPa	1467.6
10428 kPa	1467.8
10474 kPa	1467.9
10520 kPa	1468.1
11001 kPa	1470.5
12780 kPa	1478.5
12814 kPa	1478.8
12854 kPa	1478.9
12939 kPa	1479.2
13996 kPa	1483.9
14034 kPa	1484.1
16570 kPa	1494.7
16613 kPa	1494.8
16642 kPa	1494.8
16676 kPa	1495.1
16710 kPa	1495.1
16801 kPa	1495.6
17585 kPa	1498.6
17619 kPa	1498.8
19526 kPa	1506.1
19555 kPa	1506.3
19593 kPa	1506.2
20937 kPa	1511.3
21424 kPa	1513.1
21528 kPa	1513.4
21563 kPa	1513.5
21593 kPa	1513.7
21629 kPa	1513.8
21779 kPa	1514.5
21810 kPa	1514.5
21855 kPa	1514.7
21896 kPa	1514.8
23767 kPa	1521.3
32750 kPa	1549.5
32783 kPa	1549.7
32817 kPa	1549.7
32855 kPa	1549.9
32884 kPa	1549.9
32926 kPa	1550.1
32970 kPa	1550.2
32998 kPa	1550.3
33036 kPa	1550.4
33075 kPa	1550.3
33109 kPa	1550.6
33143 kPa	1550.6
33182 kPa	1550.8
33215 kPa	1550.9
33255 kPa	1550.8
33293 kPa	1551.1
33323 kPa	1551.1
33367 kPa	1551.3
33406 kPa	1551.4
